Assay results taken from ChEMBL document CHEMBL6109136, “Discovery of the 2,3-Dihydrobenzopyrane-4-one as a Potent FTO Inhibitor against Obesity-Related Metabolic Diseases” (J Med Chem, 2025).
Each block holds one compound with its values, some of them ahead of it.

How the values were obtained:
[1] = target: T1, Alpha-ketoglutarate-dependent dioxygenase FTO (Homo sapiens, UniProt Q9C0B1); test: Inhibition of His-tagged N-terminal FTO (unknown origin)
[2] = target: T1, Alpha-ketoglutarate-dependent dioxygenase FTO; test: Binding affinity to GFP-tagged FTO (unknown origin) assessed as dissociation constant by microscale thermophoresis analysis
Cytochrome P450 2C9 [3] = target: T2, Cytochrome P450 2C9 (Homo sapiens, UniProt P11712); test: Inhibition of CYP2C9 in human liver microsome by Liquid chromatography-tandem mass spectrometric analysis
T2 sequence (P11712 whole entry): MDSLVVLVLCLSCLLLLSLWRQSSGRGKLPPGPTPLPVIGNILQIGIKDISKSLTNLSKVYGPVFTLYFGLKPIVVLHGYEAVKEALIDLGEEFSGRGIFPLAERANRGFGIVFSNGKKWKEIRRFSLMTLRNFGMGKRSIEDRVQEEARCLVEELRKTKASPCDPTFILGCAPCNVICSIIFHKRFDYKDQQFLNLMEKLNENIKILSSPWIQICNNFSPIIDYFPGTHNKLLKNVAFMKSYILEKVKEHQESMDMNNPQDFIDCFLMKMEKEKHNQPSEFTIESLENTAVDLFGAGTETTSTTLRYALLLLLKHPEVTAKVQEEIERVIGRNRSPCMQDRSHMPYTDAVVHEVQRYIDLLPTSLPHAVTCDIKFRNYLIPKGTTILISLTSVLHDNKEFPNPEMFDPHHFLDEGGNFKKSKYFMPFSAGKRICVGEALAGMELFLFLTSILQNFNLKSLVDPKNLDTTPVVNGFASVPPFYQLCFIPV

in vitro [4] = details: rat, liver microsomes
Description: Metabolic stability in rat liver microsome assessed as half-life at 1 uM by HPLC analysis

in vivo [5] = details: male, Sprague-Dawley, rat, po, 10 mg/kg
Description: Cmax in male Sprague-Dawley rat at 10 mg/kg, po measured up to 24 hrs by HPLC analysis

[6] = MRT in male Sprague-Dawley rat at 10 mg/kg, po measured up to 24 hrs by HPLC analysis; details: in vivo
[7] = Binding affinity to GFP-tagged FTO Asp233 mutant (unknown origin) assessed as dissociation constant by microscale thermophoresis analysis
[8] = Half-life in male Sprague-Dawley rat at 5 mg/kg, iv measured up to 8 hrs by HPLC analysis; details: in vivo
Cytochrome P450 2C9 [9] = target: T2, Cytochrome P450 2C9; test: Inhibition of recombinant CYP2C9 in human liver microsome by Liquid chromatography-tandem mass spectrometric analysis
in vitro [10] = details: rat, liver microsomes; remark: listed apart in the source
Description: Metabolic stability in rat liver microsomes assessed as intrinsic clearance per mg protein at 1 uM by HPLC analysis

[11] = MRT in male Sprague-Dawley rat at 5 mg/kg, iv measured up to 8 hrs by HPLC analysis; details: in vivo
in vivo [12] = details: male, Sprague-Dawley, rat, po, 10 mg/kg; remark: listed apart in the source
Description: AUC (0 to infinity) in male Sprague-Dawley rat at 10 mg/kg, po measured up to 24 hrs by HPLC analysis

[13] = Half-life in male Sprague-Dawley rat at 10 mg/kg, po measured up to 24 hrs by HPLC analysis; details: in vivo
[14] = Binding affinity to GFP-tagged FTO Glu234 mutant (unknown origin) assessed as dissociation constant by microscale thermophoresis analysis
in vitro [15] = details: human, liver microsomes
Description: Metabolic stability in human liver microsomes assessed as intrinsic clearance per mg protein at 1 uM by HPLC analysis

in vivo [16] = details: male, Sprague-Dawley, rat, po, 10 mg/kg; remark: listed apart in the source
Description: Oral bioavailability in male Sprague-Dawley rat at 10 mg/kg measured up to 24 hrs by HPLC analysis

[17] = target: T1, Alpha-ketoglutarate-dependent dioxygenase FTO; test: Binding affinity to GFP-tagged FTO (unknown origin) assessed as dissociation constant by SPR analysis
[18] = Binding affinity to GFP-tagged FTO Arg96 mutant (unknown origin) assessed as dissociation constant by microscale thermophoresis analysis
in vitro [19] = details: human, liver microsomes; remark: listed apart in the source
Description: Metabolic stability in human liver microsome assessed as half-life at 1 uM by HPLC analysis

[20] = Binding affinity to GFP-tagged FTO Tyr108 mutant (unknown origin) assessed as dissociation constant by microscale thermophoresis analysis
in vitro [21] = details: rat, liver microsomes; remark: listed apart in the source
Description: Metabolic stability in rat liver microsomes assessed as hepatic clearance at 1 uM by HPLC analysis

in vivo [22] = details: male, Sprague-Dawley, rat, po, 10 mg/kg; remark: listed apart in the source
Description: Tmax in male Sprague-Dawley rat at 10 mg/kg, po measured up to 24 hrs by HPLC analysis

Cytochrome P450 2D6 = Cytochrome P450 2D6 (Homo sapiens, UniProt P10635); test: Inhibition of recombinant CYP2D6 in human liver microsome by Liquid chromatography-tandem mass spectrometric analysis
Sequence of Cytochrome P450 2D6 (P10635 whole entry): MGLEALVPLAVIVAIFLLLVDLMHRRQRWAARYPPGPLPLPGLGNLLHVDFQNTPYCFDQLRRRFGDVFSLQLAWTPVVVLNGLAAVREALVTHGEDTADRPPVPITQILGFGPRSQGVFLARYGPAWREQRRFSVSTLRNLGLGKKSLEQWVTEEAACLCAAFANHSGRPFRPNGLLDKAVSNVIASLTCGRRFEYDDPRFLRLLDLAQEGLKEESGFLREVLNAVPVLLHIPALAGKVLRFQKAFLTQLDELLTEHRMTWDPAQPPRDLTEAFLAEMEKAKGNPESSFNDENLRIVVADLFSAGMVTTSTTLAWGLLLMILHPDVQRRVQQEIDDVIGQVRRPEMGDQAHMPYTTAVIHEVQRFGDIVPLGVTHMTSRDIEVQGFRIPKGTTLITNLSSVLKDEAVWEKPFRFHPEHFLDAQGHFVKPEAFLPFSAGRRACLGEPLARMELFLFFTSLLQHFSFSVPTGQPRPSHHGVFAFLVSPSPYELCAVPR

in vivo [23] = details: male, Sprague-Dawley, rat, iv, 5 mg/kg
Description: Cmax in male Sprague-Dawley rat at 5 mg/kg, iv measured up to 8 hrs by HPLC analysis

in vivo [24] = details: male, Sprague-Dawley, rat, iv, 5 mg/kg; remark: listed apart in the source
Description: AUC (0 to infinity) in male Sprague-Dawley rat at 5 mg/kg, iv measured up to 8 hrs by HPLC analysis

in vitro [25] = details: human, liver microsomes; remark: listed apart in the source
Description: Metabolic stability in human liver microsomes assessed as hepatic clearance at 1 uM by HPLC analysis

[26] = Binding affinity to GFP-tagged FTO (Ser229) mutant (unknown origin) assessed as dissociation constant by microscale thermophoresis analysis
CYP3A4/5 = CYP3A4/5 (Homo sapiens, UniProt P08684+P20815); test: Inhibition of recombinant CYP3A4/5 in human liver microsome by Liquid chromatography-tandem mass spectrometric analysis; details: recombinant CYP3A4/5 in human liver microsomes
Cytochrome P450 2C19 = Cytochrome P450 2C19 (Homo sapiens, UniProt P33261); test: Inhibition of recombinant CYP2C19 in human liver microsome by Liquid chromatography-tandem mass spectrometric analysis
Sequence of Cytochrome P450 2C19 (P33261 whole entry): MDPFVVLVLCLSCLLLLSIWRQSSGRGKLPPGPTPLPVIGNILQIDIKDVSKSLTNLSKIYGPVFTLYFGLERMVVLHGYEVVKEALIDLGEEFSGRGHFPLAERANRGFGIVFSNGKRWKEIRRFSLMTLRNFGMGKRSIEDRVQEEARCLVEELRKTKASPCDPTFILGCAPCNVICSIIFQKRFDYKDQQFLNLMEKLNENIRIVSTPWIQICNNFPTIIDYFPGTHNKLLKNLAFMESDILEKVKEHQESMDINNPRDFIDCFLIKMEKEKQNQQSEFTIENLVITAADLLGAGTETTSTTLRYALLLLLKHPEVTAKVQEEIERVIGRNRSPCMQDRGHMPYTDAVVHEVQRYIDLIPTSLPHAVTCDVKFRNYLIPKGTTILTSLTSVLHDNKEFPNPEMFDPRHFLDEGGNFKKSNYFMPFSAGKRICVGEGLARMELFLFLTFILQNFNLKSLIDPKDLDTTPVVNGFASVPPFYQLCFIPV

T1 sequence (Q9C0B1 whole entry): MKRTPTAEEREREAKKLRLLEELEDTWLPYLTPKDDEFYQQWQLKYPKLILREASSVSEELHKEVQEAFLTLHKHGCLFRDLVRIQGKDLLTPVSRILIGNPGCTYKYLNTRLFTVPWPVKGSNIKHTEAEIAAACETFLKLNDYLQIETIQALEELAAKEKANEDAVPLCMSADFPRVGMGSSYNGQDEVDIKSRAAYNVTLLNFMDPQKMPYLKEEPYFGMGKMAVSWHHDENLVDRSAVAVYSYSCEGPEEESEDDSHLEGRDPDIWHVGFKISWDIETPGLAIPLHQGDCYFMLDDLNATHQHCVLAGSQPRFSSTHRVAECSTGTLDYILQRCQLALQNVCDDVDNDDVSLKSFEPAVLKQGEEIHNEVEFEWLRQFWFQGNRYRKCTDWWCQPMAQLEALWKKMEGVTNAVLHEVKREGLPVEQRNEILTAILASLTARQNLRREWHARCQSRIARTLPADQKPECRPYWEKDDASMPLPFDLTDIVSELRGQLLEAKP

IC50 [1]: 19.1 µM
SMILES: O=c1c(O)c(-c2ccccc2)oc2cc(O)cc(O)c12 [GALANGIN]

IC50 [1]: 19.2 µM
SMILES: O=c1cc(-c2ccccc2)oc2cccc(O)c12 [5-HYDROXYFLAVONE]

SMILES: O=c1cc(-c2ccc(O)c(O)c2)oc2cc(O)cc(O)c12 [LUTEOLIN]
IC50 [1]: 7.5 µM

IC50 [1]: 17.8 µM
SMILES: O=c1cc(-c2ccccc2)oc2ccc(O)cc12 [6-HYDROXYFLAVONE]

IC50 [1]: 17.9 µM
SMILES: O=c1cc(-c2ccccc2)oc2cc(O)ccc12 [7-HYDROXYFLAVONE]

IC50 [1]: 12.1 µM
SMILES: O=c1cc(-c2ccc(O)cc2)oc2cc(O)cc(O)c12 [APIGENIN]

IC50 [1]: 7.7 µM
SMILES: O=c1cc(-c2cc(O)c(O)c(O)c2)oc2cc(O)cc(O)c12 [TRICETIN]

IC50 [1]: 17.6 µM
SMILES: O=c1c(O)c(-c2ccc(O)cc2)oc2cc(O)cc(O)c12 [KAEMPFEROL]

IC50 [1]: 5.7 µM
SMILES: O=c1cc(-c2ccc(O)c(O)c2)oc2ccccc12

IC50 [1]: 9.2 µM
SMILES: O=c1c(O)c(-c2ccc(O)c(O)c2)oc2cc(O)ccc12 [FISETIN]

IC50 [1]: 9.6 µM
Kd [2]: 34 µM
SMILES: O=c1c(O)c(-c2cc(O)c(O)c(O)c2)oc2cc(O)cc(O)c12 [MYRICETIN]

IC50 (Cytochrome P450 2C9 [3]): 4 µM
SMILES: CCN(CC)C(=O)/C(C#N)=C/c1cc(O)c(O)c([N+](=O)[O-])c1 [ENTACAPONE]

IC50 [1]: 13.9 µM
SMILES: O=c1cc(-c2cc(O)c(O)c(O)c2)oc2ccccc12

IC50 [1]: 15.6 µM
SMILES: O=c1cc(-c2ccc(O)cc2)oc2cc(O)c(O)c(O)c12 [SCUTELLAREIN]

IC50 [1]: 17.1 µM
SMILES: O=c1cc(-c2ccccc2)oc2cc(O)c(O)c(O)c12 [BAICALEIN]

IC50 [1]: 16.2 µM
SMILES: O=c1ccoc2cc(O)ccc12

IC50 [1]: 89.8 µM
SMILES: O=c1ccoc2ccccc12 [CHROMONE]

half-life at 1 µM (in vitro [4]): 0.345 h
Cmax at 24 h (in vivo [5]): 472 ng/mL
MRT at 24 h [6]: 1.89 h
Kd [7]: 109 µM
half-life at 8 h [8]: 1.63 h
IC50 (Cytochrome P450 2C9 [9]): > 50 µM
microsomal CLint at 1 µM (in vitro [10]): 67.2 µL/min/mg
MRT at 8 h [11]: 0.828 h
AUC(0-inf) at 24 h (in vivo [12]): 559 ng·h/mL
half-life at 24 h [13]: 3.35 h
Kd [14]: 186 µM
microsomal CLint at 1 µM (in vitro [15]): < 7.4 µL/min/mg
bioavailability at 24 h (in vivo [16]): 29.9%
Kd [17]: 3.24 µM
Kd [18]: 257 µM
half-life at 1 µM (in vitro [19]): > 3.11 h
IC50 [1]: 3.5 µM
Kd [20]: 47.6 µM
CLhep predicted at 1 µM (in vitro [21]): 37.9 mL/min/kg
Kd [2]: 2.8 µM
Tmax at 24 h (in vivo [22]): 0.5 h
IC50 (Cytochrome P450 2D6): > 50 µM
Cmax at 8 h (in vivo [23]): 1830 ng/mL
AUC(0-inf) at 8 h (in vivo [24]): 932 ng·h/mL
CLhep predicted at 1 µM (in vitro [25]): < 6.1 mL/min/kg
Kd [26]: 170 µM
IC50 (CYP3A4/5): > 50 µM
IC50 (Cytochrome P450 2C19): 44 µM
SMILES: O=C1C[C@@H](c2ccc(O)c(O)c2)Oc2cc(O)cc(O)c21 [ERIODICTYOL]

SMILES: O=c1c(O)c(-c2ccc(O)c(O)c2)oc2cc(O)cc(O)c12 [QUERCETIN]
IC50 [1]: 9.5 µM

IC50 [1]: 18.2 µM
SMILES: COc1ccc(-c2oc3cc(O)cc(O)c3c(=O)c2O)cc1 [KAEMPFERIDE]

IC50 [1]: 13.9 µM
SMILES: O=c1c(O)c(-c2ccc(O)cc2O)oc2cc(O)cc(O)c12 [MORIN]

IC50 [1]: 18.5 µM
SMILES: O=c1c(O)c(-c2ccc(O)cc2)oc2ccccc12
